# System: cytochrome P-450 aniline p-hydroxylation
# Test: inhibitory action of alcohols on cytochrome P-450 aniline p-hydroxylation (data of Cohen and Mannering)
# Assay type: biochemical
# Details: versus the electronic nose QSAR and another QSAR on the cytochrome P-450 system
# Excerpt: To test the ability of the “electronic nose” to identify molecules of interest having a particular biological activity selected from a library of molecules of interest, a quantitative structure-activity relationship (QSAR) was used to predict the inhibitory action of a series of alcohols on cytochrome P-450 aniline p-hydroxylation.
# The values are expressed as PI50, where I50 is the concentration of the alcohol (in mM) at which the activity of the enzyme is 50% inhibited, and PI50 is the negative logarithm of I50. More positive numbers correspond to more strongly inhibiting alcohols.
smiles,measurement,value
OCc1ccccc1 [benzyl alcohol],activity compared with QSAR prediction,higher activity than is predicted
